Results taken from patent publication US20210230179A1, “THIENO[2,3-B]PYRIDINE DERIVATIVES AS EPAC INHIBITORS AND THEIR PHARMACEUTICAL USES” (INSTITUT NATIONAL DE LA SANTE ET DE LA RECHERCHE MEDICALE …, priority 2018, published 2021).

Molecular target: T1, Epac2B (Homo sapiens, UniProt Q8WZA2)
T1 construct: expressed in transfected cells; host or cells: HEK293
T1 sequence (Q8WZA2 1-867 isoform Q8WZA2-3): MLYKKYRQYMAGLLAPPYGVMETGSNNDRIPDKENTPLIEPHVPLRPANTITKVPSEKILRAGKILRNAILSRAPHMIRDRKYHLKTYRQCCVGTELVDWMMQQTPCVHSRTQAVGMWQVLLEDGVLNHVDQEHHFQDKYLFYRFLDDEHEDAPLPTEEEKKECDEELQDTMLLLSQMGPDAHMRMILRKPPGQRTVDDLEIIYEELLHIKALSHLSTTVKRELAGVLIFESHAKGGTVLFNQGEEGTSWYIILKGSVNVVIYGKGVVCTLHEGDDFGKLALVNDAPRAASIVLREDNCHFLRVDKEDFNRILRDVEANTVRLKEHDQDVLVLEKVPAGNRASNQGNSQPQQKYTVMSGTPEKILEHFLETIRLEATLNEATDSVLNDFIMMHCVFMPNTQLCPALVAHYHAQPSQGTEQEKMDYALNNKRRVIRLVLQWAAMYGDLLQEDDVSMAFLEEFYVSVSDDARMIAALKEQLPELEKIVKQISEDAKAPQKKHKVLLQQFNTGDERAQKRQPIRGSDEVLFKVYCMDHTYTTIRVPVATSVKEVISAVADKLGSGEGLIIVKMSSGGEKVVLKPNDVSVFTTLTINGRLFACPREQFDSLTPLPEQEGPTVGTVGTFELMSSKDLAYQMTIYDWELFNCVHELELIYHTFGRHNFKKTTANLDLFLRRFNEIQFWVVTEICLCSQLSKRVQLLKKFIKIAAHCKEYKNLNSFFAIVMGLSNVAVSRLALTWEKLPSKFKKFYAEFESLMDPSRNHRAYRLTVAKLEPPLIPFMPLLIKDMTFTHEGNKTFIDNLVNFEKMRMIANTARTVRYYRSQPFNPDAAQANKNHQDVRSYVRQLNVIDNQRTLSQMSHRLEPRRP
Experiment: Rap1-GTP in HEK293 cells transfected with Epac2B
Assay type: cell-based
Conditions: 20 μM, 30 min preincubation; S-220 50 μM, 10 min
Protocol: FIGS. 9-13. Amounts of Rap1-GTP (n=5 in each group, mean±S.E.M) were determined in HEK293 cells transfected with Epac1 (FIGS. 9-11), Epac2A (FIG. 12) or Epac2B (FIG. 13). Cells were preincubated or not with AM-001 (FIGS. 9, 12, and 13), AM-002 (FIG. 10) or AM-003 (FIG. 11) (20 μM, 30 min) and were then treated or not with 8-CPT-AM (10 μM for Epac1 activation and 20 μM for Epac2A activation) or S-220 (50 μM for Epac2B activation) for 10 min. ESI-05 was used as positive control of Epac2A inhibition. Representative immunoblots are shown. […], *[…], ***p<0.001, ****p<0.0001, versus indicated values, one way ANOVA, Bonferroni comparison test.
Human Embryonic Kidney cells line (HEK293): HEK293 cells were maintained is in minimal essential medium with FBS (10%) and penicillin-streptomycin (1%). All media, sera, and antibiotics used in cell culture were purchased from Invitrogen.
The human Epac1/Epac2 expression vector was a gift from Dr J. L. Bos. Cells were transfected using Lipofectamine 2000 (Invitrogen) according to the manufacturer's instructions. HEK293 cells were maintained in MEM with FBS (Foetal Bovine Serum; 10%) and penicillin-streptomycin (1%). All media, sera and antibiotics used in cell culture were purchased from Invitrogen (Cergy Pontoise, France). […]

How did the “inhibition of the increase in Rap1-GTP induced by S-220” value turn out when `Nc1c(C(=O)Nc2ccc(F)cc2)sc2nc(-c3cccs3)cc(-c3ccccc3)c12` [AM-001, 3-amino-N-(4-fluorophenyl)-4-phenyl-6-(thiophen-2-yl)thieno[2,3-b]pyridine-2-carboxamide] was run?
Its value is “ineffective”.
